Source: article PMC9340770 (Journal of Medicinal Chemistry, 2022)

What was measured:
LCK = target: T1, LCK (Homo sapiens, UniProt P06239); test: Safetyscan Kinases Binding; settings: read-out: RC50 (IC50) LCK Inhibitor
T1 construct: purchased DiscoverX (Eurofins)

HRH2 = target: T2, HRH2 (Homo sapiens, UniProt P25021); test: Safetyscan cAMP; assay type: cell-based
T2 construct: purchased DiscoverX (Eurofins) Safetyscan Panel

[1] = PK across species (ranges); assay type: in vivo, CD-1 mice, Sprague–Dawley rats, and beagle dogs; settings: range across mice, rats, dogs
AVPR1A = target: T3, AVPR1A (Homo sapiens, UniProt P37288); test: Safetyscan Calcium Flux; assay type: cell-based
T3 construct: purchased DiscoverX (Eurofins) Safetyscan Panel

COX2 = target: T4, COX2 (Homo sapiens, UniProt P35354); test: Safetyscan Enzymatic; assay type: biochemical; settings: read-out: RC50 (IC50) COX2 Inhibitor
T4 construct: purchased DiscoverX (Eurofins)

ADRB2 = target: T5, ADRB2 (Homo sapiens, UniProt P07550); test: Safetyscan cAMP; assay type: cell-based
T5 construct: purchased DiscoverX (Eurofins) Safetyscan Panel

PDE4D2 = target: T6, PDE4D2 (Homo sapiens, UniProt Q08499); test: Safetyscan Enzymatic; assay type: biochemical; settings: read-out: RC50 (IC50) PDE4D2 Inhibitor
T6 construct: purchased DiscoverX (Eurofins)

Rat PK (IV and PO) = assay type: in vivo, Sprague–Dawley rats
Excerpt: Table 9 PK Parameters for MRTX0902 (32) across Species | column: rat

CCKAR = target: T7, CCKAR (Homo sapiens, UniProt P32238); test: Safetyscan Calcium Flux; assay type: cell-based
T7 construct: purchased DiscoverX (Eurofins) Safetyscan Panel

COX1 = target: T8, COX1 (Homo sapiens, UniProt P23219); test: Safetyscan Enzymatic; assay type: biochemical; settings: read-out: RC50 (IC50) COX1 Inhibitor
T8 construct: purchased DiscoverX (Eurofins)

VEGFR2 = target: T9, VEGFR2 (Homo sapiens, UniProt P35968); test: Safetyscan Kinases Binding; settings: read-out: RC50 (IC50) VEGFR2 Inhibitor
T9 construct: purchased DiscoverX (Eurofins)

CAV1.2 = target: T10, CAV1.2 (Homo sapiens, UniProt Q13936); test: Safetyscan Ion Channel; assay type: cell-based; settings: blocker mode, read-out: RC50 (IC50) CAV1.2 Blocker
T10 construct: purchased DiscoverX (Eurofins)

EDNRA = target: T11, EDNRA (Homo sapiens, UniProt P25101); test: Safetyscan Calcium Flux; assay type: cell-based
T11 construct: purchased DiscoverX (Eurofins) Safetyscan Panel

[2] = tested on: safety panel comprised of 78 protein targets; test: DiscoverX (Eurofins) Safetyscan panel, overall; settings: safety panel of 78 protein targets
ROCK1 = target: T12, ROCK1 (Homo sapiens, UniProt Q13464); test: Safetyscan Kinases Binding; settings: read-out: RC50 (IC50) ROCK1 Inhibitor
T12 construct: purchased DiscoverX (Eurofins)

CYP3A4 = CYP3A4 (Homo sapiens, UniProt P08684); test: biochemical
hERG = target: T13, hERG (Homo sapiens, UniProt Q12809); test: Safetyscan Ion Channel; assay type: cell-based; settings: blocker mode, read-out: RC50 (IC50) hERG Blocker
T13 construct: purchased DiscoverX (Eurofins)

Dog PK (IV and PO) = assay type: in vivo, beagle dogs
Excerpt: Table 9 PK Parameters for MRTX0902 (32) across Species | column: dog

ADORA2A = target: T14, ADORA2A (Homo sapiens, UniProt P29274); test: Safetyscan Calcium Flux; assay type: cell-based
T14 construct: purchased DiscoverX (Eurofins) Safetyscan Panel

HRH1 = target: T15, HRH1 (Homo sapiens, UniProt P35367); test: Safetyscan Calcium Flux; assay type: cell-based
T15 construct: purchased DiscoverX (Eurofins) Safetyscan Panel

INSR = target: T16, INSR (Homo sapiens, UniProt P06213); test: Safetyscan Kinases Binding; settings: read-out: RC50 (IC50) INSR Inhibitor
T16 construct: purchased DiscoverX (Eurofins)

ADRB1 = target: T17, ADRB1 (Homo sapiens, UniProt P08588); test: Safetyscan cAMP; assay type: cell-based
T17 construct: purchased DiscoverX (Eurofins) Safetyscan Panel

GR = target: T18, GR (Homo sapiens, UniProt P04150); test: Safetyscan NHR Protein Interaction; assay type: cell-based
T18 construct: purchased DiscoverX (Eurofins)

in vivo = settings: CD-1, mouse, po, 30 mg/kg
[3] = CD-1, Sprague-Dawley, beagle, mouse, rat, dog, in vivo, IV administration

T7 sequence (P32238 whole entry): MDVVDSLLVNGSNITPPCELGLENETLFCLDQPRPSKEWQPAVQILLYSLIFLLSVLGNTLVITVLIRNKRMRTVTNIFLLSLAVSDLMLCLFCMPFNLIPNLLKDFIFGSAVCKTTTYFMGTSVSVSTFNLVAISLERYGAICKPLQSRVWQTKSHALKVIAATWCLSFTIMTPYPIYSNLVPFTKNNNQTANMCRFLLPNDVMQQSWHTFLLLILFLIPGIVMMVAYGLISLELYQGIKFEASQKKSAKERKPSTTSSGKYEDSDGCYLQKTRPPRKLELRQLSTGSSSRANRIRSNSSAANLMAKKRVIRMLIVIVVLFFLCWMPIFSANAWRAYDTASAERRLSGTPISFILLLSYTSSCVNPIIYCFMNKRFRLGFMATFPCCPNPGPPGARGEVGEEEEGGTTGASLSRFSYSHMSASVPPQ
T14 sequence (P29274 whole entry): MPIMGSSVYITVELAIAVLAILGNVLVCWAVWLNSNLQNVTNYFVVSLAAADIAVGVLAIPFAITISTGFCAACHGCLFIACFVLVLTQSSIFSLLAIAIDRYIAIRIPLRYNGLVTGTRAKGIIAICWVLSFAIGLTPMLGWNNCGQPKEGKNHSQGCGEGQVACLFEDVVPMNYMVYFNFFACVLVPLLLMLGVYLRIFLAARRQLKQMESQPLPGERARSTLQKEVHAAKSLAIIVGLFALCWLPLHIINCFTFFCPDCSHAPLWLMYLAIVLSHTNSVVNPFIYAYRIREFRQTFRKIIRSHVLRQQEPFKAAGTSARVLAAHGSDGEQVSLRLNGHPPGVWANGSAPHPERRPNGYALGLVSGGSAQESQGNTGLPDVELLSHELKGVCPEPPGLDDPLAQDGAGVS
T11 sequence (P25101 21-427): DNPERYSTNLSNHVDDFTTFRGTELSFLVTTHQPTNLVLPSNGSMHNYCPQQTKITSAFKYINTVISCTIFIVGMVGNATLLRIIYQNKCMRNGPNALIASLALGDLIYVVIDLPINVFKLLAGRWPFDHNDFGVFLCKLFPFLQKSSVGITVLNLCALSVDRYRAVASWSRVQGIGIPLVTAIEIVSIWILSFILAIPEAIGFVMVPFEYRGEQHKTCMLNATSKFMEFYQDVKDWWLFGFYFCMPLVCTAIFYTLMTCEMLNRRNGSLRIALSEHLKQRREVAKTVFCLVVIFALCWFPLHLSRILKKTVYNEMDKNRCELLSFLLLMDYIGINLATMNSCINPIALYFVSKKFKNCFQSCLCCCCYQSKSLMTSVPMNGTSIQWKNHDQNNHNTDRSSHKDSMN
T2 sequence (P25021 whole entry): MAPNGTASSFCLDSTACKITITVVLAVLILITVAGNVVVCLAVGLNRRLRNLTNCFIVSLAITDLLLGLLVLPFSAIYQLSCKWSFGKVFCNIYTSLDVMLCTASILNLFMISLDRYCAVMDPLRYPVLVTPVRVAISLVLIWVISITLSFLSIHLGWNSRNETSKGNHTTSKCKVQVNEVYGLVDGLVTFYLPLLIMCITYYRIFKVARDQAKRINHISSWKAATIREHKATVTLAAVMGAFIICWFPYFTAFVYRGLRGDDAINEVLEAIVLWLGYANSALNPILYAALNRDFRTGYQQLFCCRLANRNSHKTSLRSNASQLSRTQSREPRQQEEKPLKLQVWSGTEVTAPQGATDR
T18 sequence (P04150 whole entry): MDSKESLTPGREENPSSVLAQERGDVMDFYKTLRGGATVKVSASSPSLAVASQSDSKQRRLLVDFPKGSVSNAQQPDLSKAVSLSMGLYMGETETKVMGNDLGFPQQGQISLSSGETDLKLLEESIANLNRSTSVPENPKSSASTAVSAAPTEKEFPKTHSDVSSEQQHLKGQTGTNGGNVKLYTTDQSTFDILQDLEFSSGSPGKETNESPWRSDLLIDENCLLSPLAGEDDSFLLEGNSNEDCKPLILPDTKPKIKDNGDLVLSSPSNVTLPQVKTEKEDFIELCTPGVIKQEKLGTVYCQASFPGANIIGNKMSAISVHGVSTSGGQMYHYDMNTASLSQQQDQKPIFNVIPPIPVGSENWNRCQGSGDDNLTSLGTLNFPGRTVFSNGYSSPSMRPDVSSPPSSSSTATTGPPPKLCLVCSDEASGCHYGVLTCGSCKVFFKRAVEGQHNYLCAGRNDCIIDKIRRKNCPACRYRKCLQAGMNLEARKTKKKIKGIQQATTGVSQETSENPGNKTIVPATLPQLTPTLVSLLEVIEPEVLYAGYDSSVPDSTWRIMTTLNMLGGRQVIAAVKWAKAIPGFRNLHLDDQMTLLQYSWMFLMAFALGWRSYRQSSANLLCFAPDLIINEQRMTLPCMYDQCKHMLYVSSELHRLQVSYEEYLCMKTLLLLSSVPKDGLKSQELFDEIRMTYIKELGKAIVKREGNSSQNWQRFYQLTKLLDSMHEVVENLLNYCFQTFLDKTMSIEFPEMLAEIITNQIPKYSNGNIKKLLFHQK
T15 sequence (P35367 whole entry): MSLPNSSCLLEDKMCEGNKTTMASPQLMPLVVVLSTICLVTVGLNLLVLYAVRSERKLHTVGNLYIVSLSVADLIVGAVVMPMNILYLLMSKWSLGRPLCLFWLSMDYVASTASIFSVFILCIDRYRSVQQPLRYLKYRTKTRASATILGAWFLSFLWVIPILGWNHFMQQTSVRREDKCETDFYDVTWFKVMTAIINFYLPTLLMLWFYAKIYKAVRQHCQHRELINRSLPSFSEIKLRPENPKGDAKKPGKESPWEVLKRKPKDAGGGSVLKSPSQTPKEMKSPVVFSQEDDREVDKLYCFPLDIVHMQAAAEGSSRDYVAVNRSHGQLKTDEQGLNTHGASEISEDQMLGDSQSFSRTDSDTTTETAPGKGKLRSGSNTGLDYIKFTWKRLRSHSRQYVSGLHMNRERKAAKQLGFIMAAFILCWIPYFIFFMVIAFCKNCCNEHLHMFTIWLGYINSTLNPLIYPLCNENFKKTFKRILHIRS
T17 sequence (P08588 whole entry): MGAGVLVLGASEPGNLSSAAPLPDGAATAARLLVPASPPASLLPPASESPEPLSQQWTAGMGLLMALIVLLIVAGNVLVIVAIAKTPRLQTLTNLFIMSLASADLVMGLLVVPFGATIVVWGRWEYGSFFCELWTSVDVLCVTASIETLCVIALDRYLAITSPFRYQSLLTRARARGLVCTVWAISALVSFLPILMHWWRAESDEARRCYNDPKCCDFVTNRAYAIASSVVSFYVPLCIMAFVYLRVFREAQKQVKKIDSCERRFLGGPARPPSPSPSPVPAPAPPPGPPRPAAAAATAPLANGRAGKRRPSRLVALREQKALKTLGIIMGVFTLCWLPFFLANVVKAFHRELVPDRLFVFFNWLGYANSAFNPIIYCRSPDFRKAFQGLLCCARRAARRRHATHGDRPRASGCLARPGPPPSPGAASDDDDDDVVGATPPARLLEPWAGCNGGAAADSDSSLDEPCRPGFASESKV
T5 sequence (P07550 whole entry): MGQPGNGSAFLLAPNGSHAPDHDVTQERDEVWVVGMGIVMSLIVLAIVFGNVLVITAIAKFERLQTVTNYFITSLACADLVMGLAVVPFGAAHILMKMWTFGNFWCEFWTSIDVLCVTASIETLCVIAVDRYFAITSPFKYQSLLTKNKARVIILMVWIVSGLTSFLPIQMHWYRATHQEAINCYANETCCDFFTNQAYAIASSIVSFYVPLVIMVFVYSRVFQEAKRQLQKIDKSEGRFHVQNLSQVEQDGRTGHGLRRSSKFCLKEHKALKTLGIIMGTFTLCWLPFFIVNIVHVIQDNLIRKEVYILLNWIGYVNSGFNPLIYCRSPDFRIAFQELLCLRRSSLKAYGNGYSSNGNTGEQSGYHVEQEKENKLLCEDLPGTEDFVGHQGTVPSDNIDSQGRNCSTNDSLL
T3 sequence (P37288 whole entry): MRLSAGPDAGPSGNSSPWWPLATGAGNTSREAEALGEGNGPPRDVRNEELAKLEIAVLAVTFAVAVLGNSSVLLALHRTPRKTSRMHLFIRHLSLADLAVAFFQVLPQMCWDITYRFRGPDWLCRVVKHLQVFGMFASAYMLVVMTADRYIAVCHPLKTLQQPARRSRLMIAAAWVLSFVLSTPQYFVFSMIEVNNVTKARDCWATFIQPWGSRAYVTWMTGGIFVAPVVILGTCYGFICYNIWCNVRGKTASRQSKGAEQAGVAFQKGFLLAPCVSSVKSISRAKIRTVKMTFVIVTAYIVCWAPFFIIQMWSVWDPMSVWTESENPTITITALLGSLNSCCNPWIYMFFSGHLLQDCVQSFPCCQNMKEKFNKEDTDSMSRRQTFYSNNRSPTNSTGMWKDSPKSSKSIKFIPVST
T1 sequence (P06239 whole entry): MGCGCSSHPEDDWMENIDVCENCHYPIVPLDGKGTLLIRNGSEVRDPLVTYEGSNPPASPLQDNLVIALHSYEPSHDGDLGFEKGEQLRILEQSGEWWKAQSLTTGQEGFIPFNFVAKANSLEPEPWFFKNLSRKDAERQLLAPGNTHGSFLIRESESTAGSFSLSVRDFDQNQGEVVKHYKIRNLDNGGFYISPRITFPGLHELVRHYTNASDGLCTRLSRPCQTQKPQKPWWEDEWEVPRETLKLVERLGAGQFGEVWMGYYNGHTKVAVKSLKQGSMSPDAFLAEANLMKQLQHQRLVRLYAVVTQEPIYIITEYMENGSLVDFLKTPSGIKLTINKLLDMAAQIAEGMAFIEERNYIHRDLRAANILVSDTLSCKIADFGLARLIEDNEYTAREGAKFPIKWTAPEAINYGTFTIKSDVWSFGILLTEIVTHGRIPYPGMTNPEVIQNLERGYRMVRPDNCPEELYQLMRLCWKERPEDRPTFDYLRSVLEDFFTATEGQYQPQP

SMILES: Cc1c(C#N)cccc1[C@@H](C)Nc1nnc(C)c2cnc(N3CCOCC3)cc12 [Compound 32, (R)-2-Methyl-3-(1-((4-methyl-7-morpholinopyrido[3,4-d]pyridazin-1-yl)amino)ethyl)benzonitrile]
- IC50 (LCK): > 10 µM
- EC50 (HRH2; agonist mode, read-out: RC50 (EC50) HRH2 Agonist): > 10 µM
- IC50 (HRH2; antagonist mode, read-out: RC50 (IC50) HRH2 Antagonist): > 10 µM
- clearance [1, 3]: 4.4 to 14.6 mL/min/kg
- half-life [1, 3]: 37.2 to 78 min
- Vd ([1]; CD-1, Sprague-Dawley, beagle, mouse, rat, dog, in vivo, IV administration, read-out: volume of distribution): 0.28 to 0.48 L/kg
- bioavailability ([1]; PO suspension in 0.5% MC (4000 cps)/0.2% Tween80 in water): 38–83 %F
- EC50 (AVPR1A; agonist mode, read-out: RC50 (EC50) AVPR1A Agonist): > 10 µM
- IC50 (AVPR1A; antagonist mode, read-out: RC50 (IC50) AVPR1A Antagonist): > 10 µM
- IC50 (COX2): > 10 µM
- EC50 (ADRB2; agonist mode, read-out: RC50 (EC50) ADRB2 Agonist): > 10 µM
- IC50 (ADRB2; antagonist mode, read-out: RC50 (IC50) ADRB2 Antagonist): > 10 µM
- IC50 (PDE4D2): > 10 µM
- IV t1/2 (Rat PK (IV and PO); IV 1 mg/kg): 37.2 min
- Vd,ss (Rat PK (IV and PO); IV 1 mg/kg): 0.28 L/kg
- clearance (Rat PK (IV and PO); Sprague-Dawley, in vivo, IV 1 mg/kg): 14.6 mL/min/kg
- bioavailability (Rat PK (IV and PO); Sprague-Dawley, in vivo, IV/PO 1/10 mg/kg, PO suspension in 0.5% MC (4000 cps)/0.2% Tween80 in water): 83%
- EC50 (CCKAR; agonist mode, read-out: RC50 (EC50) CCKAR Agonist): > 10 µM
- IC50 (CCKAR; antagonist mode, read-out: RC50 (IC50) CCKAR Antagonist): > 10 µM
- IC50 (COX1): > 10 µM
- IC50 (VEGFR2): > 10 µM
- IC50 (CAV1.2): > 10 µM
- EC50 (EDNRA; agonist mode, read-out: RC50 (EC50) EDNRA Agonist): > 10 µM
- IC50 (EDNRA; antagonist mode, read-out: RC50 (IC50) EDNRA Antagonist): > 10 µM
- IC50 [2]: > 10 µM
- IC50 (ROCK1): > 10 µM
- IC50 (CYP3A4): 3.6 µM
- IC50 (hERG): > 10 µM
- F (Dog PK (IV and PO); IV/PO 2/10 mg/kg, PO suspension in 0.5% MC (4000 cps)/0.2% Tween80 in water): 38%
- clearance (Dog PK (IV and PO); beagle, in vivo, IV 2 mg/kg): 7.6 mL/min/kg
- half-life (Dog PK (IV and PO); beagle, in vivo, IV 2 mg/kg, read-out: IV t1/2 (converted)): 51.6 min
- Vd (Dog PK (IV and PO); beagle, in vivo, IV 2 mg/kg, read-out: Vd,ss): 0.48 L/kg
- EC50 (ADORA2A; agonist mode, read-out: RC50 (EC50) ADORA2A Agonist): > 10 µM
- IC50 (ADORA2A; antagonist mode, read-out: RC50 (IC50) ADORA2A Antagonist): > 10 µM
- EC50 (HRH1; agonist mode, read-out: RC50 (EC50) HRH1 Agonist): > 10 µM
- IC50 (HRH1; antagonist mode, read-out: RC50 (IC50) HRH1 Antagonist): > 10 µM
- IC50 (INSR): > 10 µM
- EC50 (ADRB1; agonist mode, read-out: RC50 (EC50) ADRB1 Agonist): > 10 µM
- IC50 (ADRB1; antagonist mode, read-out: RC50 (IC50) ADRB1 Antagonist): > 10 µM
- EC50 (GR; agonist mode, read-out: RC50 (EC50) GR Agonist): > 10 µM
- IC50 (GR; antagonist mode, read-out: RC50 (IC50) GR Antagonist): > 10 µM
- bioavailability (in vivo): 69%
